# PubChem BioAssay (NCI)
# Several values for one entry are separate records, joined by “and”; a condition that tells them apart may be missing. Equal values may be shown once.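 1) Cells in 96-well plates. 2) Compound, 48 h, 5 concentrations. 3) Linear interpolation between surrounding doses. 4) Unreached endpoint = highest concentration. At the GI50, growth is halved. Definition used: TGI = concentration required for complete inhibition of growth.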
# Legend:
# Experiment in all cases: DTP human tumour cell line panel, 48 h
# [1] = tested on: MCF7 breast
# [2] = tested on: MALME-3M melanoma
# [3] = tested on: UACC-257 melanoma
# [4] = tested on: UACC-62 melanoma
# [5] = tested on: HL-60(TB) leukemia
# [6] = tested on: OVCAR-4 ovarian
# [7] = tested on: LOX IMVI melanoma
# [8] = tested on: NCI-H226 lung
# [9] = tested on: SK-MEL-5 melanoma
Structure (SMILES),GI50 [1],TGI [1],GI50 [2],TGI [2],GI50 [3],TGI [3],GI50 [4],TGI [4],GI50 [5],TGI [5],GI50 [6],TGI [6],GI50 [7],TGI [7],GI50 [8],TGI [8],GI50 [9],TGI [9]
COc1ccc(C2=NOC3=c4ccccc4=CSC3=C2c2ccccc2)cc1,24.2 µM,62.9 µM,43.7 µM,> 100 µM,69.6 µM,> 100 µM,22 µM,85 µM,39.7 µM,> 100 µM,49.7 µM,> 100 µM,44.8 µM,> 100 µM,20.2 µM,79.8 µM,16.5 µM,39.7 µM
CCOC(=O)C(=O)Nc1nc2ccc(OC)cc2s1,–,–,–,> 100 µM,–,> 100 µM,–,> 100 µM,–,> 100 µM,–,> 100 µM,–,> 100 µM,–,> 100 µM,–,> 100 µM
O=C(N[C@H]1CC2(C=C(I)C(=O)C(I)=C2)OC1=O)OCc1ccccc1,–,–,–,31.9 µM,–,32.4 µM,–,30.2 µM,–,21.4 µM,–,33.5 µM,–,30.6 µM,–,90.3 µM,–,74.6 µM
C=C(/C=C/C=C(\CO)CCC=C(C)C)[C@H]1CCC2([C@H](CCCO)/C(=C(/C)C=O)CC[C@]2(C)O)[C@H]1O (stereo not given in full),–,–,–,> 100 µM,–,> 100 µM,–,> 100 µM,–,> 100 µM,–,> 100 µM,–,> 100 µM,–,–,–,> 100 µM
CC1(C)N=C(N)N=C(N)N1c1ccc(CCCCCCc2ccc(S(=O)(=O)F)cc2)cc1,–,> 32.3 µM,–,3.79 µM,–,–,–,0.604 µM,–,> 37.3 µM,–,> 100 µM,–,> 20.9 µM,–,1.96 µM,–,2.76 µM
c1ccc2c(c1)n1nnnc1c1nnnn21,–,–,–,> 100 µM,–,> 100 µM,–,> 100 µM,–,–,–,> 100 µM,–,> 100 µM,–,> 100 µM,–,> 100 µM
C=C(c1ccc(C(=O)NCCCn2ccnc2)cc1)c1cc2c(cc1C)C(C)(C)CCC2(C)C,1.25 µM,13.8 µM,3.2 µM,22.4 µM,–,7.53 µM,1.67 µM,3.92 µM,1.06 µM,3.93 µM,4.1 µM,26 µM,0.395 µM,4.48 µM,2.1 µM,7.94 µM,1.14 µM,2.43 µM
Clc1ccc(/C=C/c2csnn2)cc1,–,–,–,> 100 µM,–,> 100 µM,–,> 100 µM,–,> 100 µM,–,> 100 µM,–,> 100 µM,–,> 100 µM,–,> 100 µM
CNC(=O)N(CCCCC(NC(C)=O)C(=O)NCc1ccccc1)Cc1ccccc1 (stereo not given),–,–,–,> 100 µM,–,> 100 µM,–,> 100 µM,–,–,–,> 100 µM,–,> 100 µM,–,> 100 µM,–,> 100 µM
COc1cc([C@H]2c3cc4c(cc3[C@H](NCc3ccc(F)cc3)C3COC(=O)[C@H]32)OCO4)cc(OC)c1O (stereo not given in full),–,–,–,19.5 µM,–,43.6 µM,–,6.68 µM,–,4.7 µM,–,> 100 µM,–,17 µM,–,7.61 µM,–,–
O=S1(=O)CS(=O)(=O)OCCCCCO1,–,–,–,> 100 µM,–,> 100 µM,–,> 100 µM,–,–,–,> 100 µM,–,> 100 µM,–,> 100 µM,–,–
O=C(Cc1csc2nc(-c3ccc(Br)cc3)cn12)N/N=C/c1ccccc1O,13.2 µM,> 100 µM,–,–,3.68 µM,11.6 µM,2.09 µM,7.28 µM,–,–,–,–,3.47 µM,13 µM,1.93 µM,7.84 µM,2.98 µM,10.6 µM
NC(=O)C1C(=O)Oc2cccnc21 (stereo not given),–,–,–,> 100 µM,–,> 100 µM,–,> 100 µM,–,–,–,–,–,> 100 µM,–,> 100 µM,–,> 100 µM
COc1cc(COC(=O)N(C)[C@@H](Cc2ccccc2)C(=O)O)c([N+](=O)[O-])cc1OC,–,> 100 µM,–,> 100 µM,–,> 100 µM,–,> 100 µM,–,> 100 µM,–,–,–,–,–,> 100 µM,–,> 100 µM
Cc1ccc(/C=C2\CCCC(C(NO)c3ccc(C)cc3)C2=NO)cc1 (stereo not given),–,–,–,> 100 µM,–,> 100 µM,–,> 100 µM,–,40.1 µM,–,45.4 µM,–,–,–,–,–,50.2 µM
Cc1cn([C@H]2CN(O)C[C@@H](CO)O2)c(=O)[nH]c1=O,–,> 100 µM,–,–,–,> 100 µM,–,> 100 µM,–,> 100 µM,–,> 100 µM,–,–,–,> 100 µM,–,> 100 µM
Nc1c([N+](=O)[O-])ncn1C1OC(CO)C(O)C1O (stereo not given),> 100 µM,> 100 µM,–,–,> 100 µM,> 100 µM,> 100 µM,> 100 µM,–,–,> 100 µM,> 100 µM,> 100 µM,> 100 µM,> 100 µM,> 100 µM,> 100 µM,> 100 µM
O=C(CC/C(CC(=O)c1ccc(Cl)cc1)=N\O)Nc1cccc(Cl)c1,–,–,–,> 100 µM,–,> 100 µM,–,> 100 µM,–,–,–,> 100 µM,–,> 100 µM,–,–,–,> 100 µM
CC1(O)CC2C(CC1SCc1ccccc1)C2(C)C (stereo not given),–,–,–,44.1 µM and 30.4 µM,26.2 µM and 12 µM,59.5 µM and 24.7 µM,–,92.3 µM and 33.4 µM,28.3 µM and 10.2 µM,> 100 µM and 33.8 µM,52.8 µM and 15.6 µM,> 100 µM and 29.3 µM,–,29.3 µM and 31.5 µM,–,42.5 µM and 30.1 µM,–,40.4 µM and 25.8 µM
